{"source": "patent US20240148765A1", "about": "“COMPOSITIONS AND METHODS FOR TREATING AND/OR PREVENTING THERAPY-RELATED CARDIOMYOPATHY ASSOCIATED WITH NEUTROPHIL INFILTRATION” (University of Virginia Patent Foundation, priority 2021, published 2024)", "key": {"[1]": {"tested_on": "Ccr2-deficient mice", "assay": "Dox-induced cardiac toxicity in Ccr2-deficient mice", "type": "in vivo", "conditions": "Ccr2-deficient relative to wild-type mice, 15 μg/g split into 3 injections, 4 weeks", "excerpt": "Mice. […] All strains are C57BL/6J background.\n(§1) Doxorubicin administration."}, "[2]": {"tested_on": "lethally irradiated mice transplanted with Trp53-heterozygous cells", "assay": "Dox cardiotoxicity in myeloablative (competitive) BMT mice, 30% Trp53^+/− or wild-type cells", "protocol": "as §1\nQuantitative RT-PCR. Mouse total RNA was isolated using QIAzol reagent (Catalog No. 79306; Qiagen, Inc., Germantown, Maryland, United States of America), and was purified on the QIAcube. 1 μg RNA was reverse transcribed with a High-capacity cDNA Reverse Transcription Kit (Catalog No. 4368814; Thermo Fisher Scientific). qRT-PCR was performed with POWERUP™ SYBR™ Green reagent (Catalog No. 4367659; Thermo Fisher Scientific) in a QUANTSTUDIO™ 6 Flex PCR system (Thermo Fisher Scientific). Gene expression was calculated relative to 36b4 and normalized to controls. Data were calculated by AACt approach."}, "[3]": {"tested_on": "C57BL6/J wild type mice", "assay": "Single bolus of Dox in wild-type mice; cardiac parameters, blood counts, cardiac-resident leukocytes", "type": "in vivo", "protocol": "as §1\n(§2) Hematopoietic cell parameter measurements. […] Hematopoietic parameters were analyzed using an Element HT5 Veterinary Hematology Analyzer (Heska, Loveland, Colorado, United States of America)."}, "[4]": {"tested_on": "Trp53 mutant hematopoietic cells", "assay": "Adoptive bone marrow transplantation model of Trp53 clonal hematopoiesis with cycles of Dox; flow cytometry chimerism and blood counts", "type": "in vivo, mice", "protocol": "Non-myeloablative bone marrow transplantation.\nas §1, §2"}, "[5]": {"tested_on": "mice transplanted with wild-type or Trp53 mutant cells", "experimental": "Doxorubicin administration. Pattern 1: adoptive BMT mice were injected with doxorubicin 6 weeks after BMT using a model of therapy-related clonal hematopoiesis (Wang et al., 2020) involving 3 rounds of 2 mg/kg i.p. injection, with 3 weeks between each round. Pattern 2: competitive BMT mice, Trp53-Myelo-KO mice, Ccr2^gfp/gfp mice, and mice in neutrophil depletion and neutrophil recruitment inhibition studies were injected with doxorubicin with a dose of 15 μg/g (body weight) split into 3 injections at indicated time points. Pattern 3: wild-type mice were injected with a single dose of doxorubicin (15 μg/g) at indicated time points.\nEchocardiography. Cardiac function was assessed before and after Dox administration at indicated time points using a Vevo 2100 ultrasound system equipped with MS400D probe (FUJIFILM VisualSonics Inc., Toronto, Ontario, Canada). Echocardiography was performed as described in Wang et al., 2019. Briefly, mice were anesthetized with isoflurane at a concentration of 5% (induction phase) and 1-1.5% (maintenance phase). Each animal was placed on the heating table in a supine position with the extremities taped to the table through four electrocardiography leads. Chest fur was removed with a chemical hair remover, and ultrasound gel was applied to the thorax surface to improve the visibility of the cardiac chambers. Left ventricular diameter at end-diastole (LVDd, mm), left ventricular diameter at end-systole (LVDs, mm), posterior wall thickness in diastole (PWTd, mm), and fractional shortening (FS, %) were measured from M-mode images obtained by short-axis view visualizing both mid papillary muscles. Measurements and analysis were performed by two individuals who were blinded to the identity of the experimental groups of mice using a Vevo Lab software (FUJIFILM VisualSonics Inc.)."}, "[6]": {"tested_on": "myeloid-specific Trp53-deficient mice (Lyz2^Cre/+Trp53^fl/fl)", "conditions": "mouse, in vivo", "text": "(§3) Mice. Wild-type mice (Cd45.2), Trp53-insufficient mice, Trp53^R27OH mice, Trp53-floxed mice, Lyz2-Cre mice, Pep Boy mice (Cd45.1), and Ccr2^gfp/gfp mice were obtained from The Jackson Laboratory (stock 000664, 002103, 008182, 008462, 004781, 002014, and 027619, respectively). All strains are C57BL/6J background. Mice with myeloid-restricted Trp53 ablation were generated by crossing Trp53-floxed mice (Trp53^fl/fl) with Lyz2-Cre mice. Male mice were used for both in vivo and in vitro experiments unless otherwise noted. Mice were housed in a specific pathogen-free animal facility and given food and water ad libitum on 12-hour dark/light schedule.\n(§4) Doxorubicin administration. Pattern 1: adoptive BMT mice were injected with doxorubicin 6 weeks after BMT using a model of therapy-related clonal hematopoiesis (Wang et al., 2020) involving 3 rounds of 2 mg/kg i.p. injection, with 3 weeks between each round. Pattern 2: competitive BMT mice, Trp53-Myelo-KO mice, Ccr2^gfp/gfp mice, and mice in neutrophil depletion and neutrophil recruitment inhibition studies were injected with doxorubicin with a dose of 15 μg/g (body weight) split into 3 injections at indicated time points. […]\n(§5) Quantitative RT-PCR. […] Gene expression was calculated relative to 36b4 and normalized to controls. Data were calculated by AACt approach."}, "[7]": {"tested_on": "myeloid-specific Trp53-deficient mice (Lyz2^Cre/+Trp53^fl/fl)", "assay": "Dox-induced cardiotoxicity in myeloid-specific Trp53-deficient mice", "conditions": "Lyz2^Cre/+Trp53^fl/fl vs control mice treated with Dox", "text": "as §3, §4, §5"}, "[8]": {"target": "T1, CXCR2 (Mus musculus, UniProt P35343)", "T1 construct": "from tissue; host or cells: whole animal: wild-type C57BL/6J mice (receptor on the animals' own neutrophils)", "T1 sequence (P35343 1-359)": "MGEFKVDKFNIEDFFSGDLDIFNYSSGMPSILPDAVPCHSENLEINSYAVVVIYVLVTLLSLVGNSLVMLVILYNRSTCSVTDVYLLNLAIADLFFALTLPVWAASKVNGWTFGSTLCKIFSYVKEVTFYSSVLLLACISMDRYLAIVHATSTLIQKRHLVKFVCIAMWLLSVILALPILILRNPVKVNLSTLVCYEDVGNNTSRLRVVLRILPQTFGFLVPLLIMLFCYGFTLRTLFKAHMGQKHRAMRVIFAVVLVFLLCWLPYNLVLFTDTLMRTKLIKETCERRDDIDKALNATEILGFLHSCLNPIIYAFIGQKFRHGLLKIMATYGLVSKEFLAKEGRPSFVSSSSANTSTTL", "assay": "CXCR2 inhibitor SB265610 in Dox-treated wild-type mice", "type": "in vivo", "conditions": "2 mg/kg/day i.p.", "protocol": "as §1\nSB265610 (CXCR2 inhibitor) administration. SB265610 (1-(2-Bromophenyl)-3-(4-cyano-1H-benzo[d] [1,2,3]triazol-7-yl)urea, N-(2-Bromophenyl)-N′-(7-cyano-1H-benzotriazol-4-yl)urea; Catalog No. SML0421; Sigma-Aldrich, St. Louis, Missouri, United States of America) was used to inhibit neutrophil infiltration into tissues. Mice were injected intraperitoneally with 2 mg/kg of SB265610, once a day, over a time course that starts 1 day before the start of doxorubicin administration until the end of the study. The solution of SB265610 was prepared in sterile dimethyl sulfoxide (DMSO) to a concentration of 10 mg/ml. The aliquoted mixture was stored at −20° C. and thawed before use. The solution was mixed with corn oil (Sigma Catalog No. C8267) to minimize the toxic effect of DMSO just before injection. Injections were performed using a sterile syringe and needle (29G). The expiration date of the mixture coincided with the expiration date of the SB265610."}, "[9]": {"conditions": "Trp53 heterozygous mutant vs wild-type bone marrow, 7 days after single Dox 15 μg/g"}, "[10]": {"conditions": "single bolus of Dox 15 μg/g i.p., up to 14 days"}, "[11]": {"conditions": "adoptive BMT mice, Dox in cycles vs saline"}, "[12]": {"conditions": "adoptive BMT mice treated with Dox"}, "[13]": {"conditions": "mice transplanted with wild-type cells, Dox cycles"}, "[14]": {"conditions": "mice with Trp53^R27OH mutant blood cells vs wild-type cells, Dox regimen"}}, "note": "Read-outs that look alike come from different tables or passages of the source.", "data": [{"smiles": "COc1cccc2c1C(=O)c1c(O)c3c(c(O)c1C2=O)C[C@@](O)(C(=O)CO)C[C@@H]3O[C@H]1C[C@H](N)[C@H](O)[C@H](C)O1", "note": "[Dox, doxorubicin]", "values": [{"measurement": "cardiac dysfunction after Dox", "setting": "[1]", "value": "comparable"}, {"measurement": "heart transcripts of inflammatory mediators Il1b, Il6 and Tnf", "setting": "[2]; 8 weeks after Dox, mutant Trp53 vs wild-type cells", "value": "significant increase"}, {"measurement": "fractional shortening and posterior wall thickness of the heart", "setting": "[2]; Trp53^+/− vs wild-type group, VAF 0.15, after Dox", "value": "significant reductions"}, {"measurement": "neutrophil recruitment to the heart", "setting": "[2]; [9]", "value": "greater neutrophil recruitment"}, {"measurement": "numbers of Ly6C^hi monocytes or macrophages within cardiac tissue", "setting": "[2]; [9]", "value": "no effect"}, {"measurement": "cardiac wall dimension and function", "setting": "[3]; single bolus of Dox 15 μg/g i.p., 14 days", "value": "reductions"}, {"measurement": "body weight", "setting": "[3]; [10]", "value": "time-dependent loss"}, {"measurement": "heart weight", "setting": "[3]; [10]", "value": "time-dependent loss"}, {"measurement": "peripheral blood monocytes", "setting": "[3]; single bolus of Dox, 7-day timepoint", "value": "transient increase"}, {"measurement": "peripheral blood neutrophils", "setting": "[3]; single bolus of Dox, at 7 days, sustained to 14 days", "value": "increase"}, {"measurement": "neutrophil recruitment to the heart", "setting": "[3]; single bolus of Dox, levels maintained to 14 days", "value": "reached a peak at 7 days"}, {"measurement": "cardiac-resident macrophage number", "setting": "[3]; single bolus of Dox, nadir at 7 days", "value": "decreased"}, {"measurement": "cardiac-resident monocyte number", "setting": "[3]; single bolus of Dox, peak at 7 days", "value": "increased"}, {"measurement": "proportions of donor-derived Trp53^+/− cells in bone marrow LSK, LT-HSC and GMP fractions", "setting": "[4]; Dox vs saline control, at termination of the experiment", "value": "considerably higher"}, {"measurement": "expansion of donor-derived Trp53^+/− cells in circulating cell populations", "setting": "[4]; [11]", "value": "further expansion"}, {"measurement": "expansion of transplanted wild-type cells in circulating cell populations", "setting": "[4]; [11]", "value": "little or no effect"}, {"measurement": "hemoglobin levels and absolute numbers of hematopoietic cell types", "setting": "[4]; after the fourth cycle of Dox, prolonged administration", "value": "altered some of these parameters"}, {"measurement": "expansion of donor-derived Trp53^R27OH clones in circulating leukocytes and bone marrow HSPC fractions", "setting": "[4]; serial Dox administration, adoptive BMT", "value": "selective expansion"}, {"measurement": "capillary density in the myocardium", "setting": "[5]; [12]", "value": "reduced capillary density"}, {"measurement": "fibrosis in the myocardium", "setting": "[5]; [12]", "value": "greater fibrosis"}, {"measurement": "cardiac contractility (echocardiography)", "setting": "[5]; [13]", "value": "deterioration"}, {"measurement": "ventricular wall (echocardiography)", "setting": "[5]; [13]", "value": "thinning"}, {"measurement": "cardiac contractility (echocardiography)", "setting": "[5]; [14]", "value": "significant reduction"}, {"measurement": "ventricular wall (echocardiography)", "setting": "[5]; [14]", "value": "wall thinning"}, {"measurement": "functional impairment and wall thinning", "setting": "[5]; mice with expanding Trp53^+/− clones vs wild-type cells, Dox cycles", "value": "significantly greater"}, {"measurement": "myocardial transcripts that encode inflammatory mediators", "setting": "[6]", "value": "upregulation"}, {"measurement": "survival", "setting": "[7]", "value": "reduced survival"}]}, {"smiles": "N#Cc1ccc(NC(=O)Nc2ccccc2Br)c2[nH]nnc12", "note": "[SB265610, 1-(2-Bromophenyl)-3-(4-cyano-1H-benzo[d] [1,2,3]triazol-7-yl)urea, N-(2-Bromophenyl)-N′-(7-cyano-1H-benzotriazol-4-yl)urea]", "values": [{"measurement": "neutrophil influx to the hearts", "setting": "[8]", "value": "reduced"}, {"measurement": "effects of Dox on cardiac wall thinning and function", "setting": "[8]; 14-day timepoint", "value": "reversed"}]}]}
